# Data reported in patent US20020165281A1, “Treatment of anoxic encephalophathy by administration of N-acetylcystein” (priority 2001, published 2002).
# Test system: anoxic encephalopathy and ischemic events
# Assay: Clinical case reports of patients with anoxic encephalopathy or ischemic events treated with N-acetylcystein
# Type: in vivo, human
# Excerpt: A person was admitted to the intensive care unit in a deep coma. Several hours prior to the admission, they suffered from a persistent ventricular arrhythmia that led to a cardiac arrest. They required nine successive electroshocks in order to reestablish their regular cardiac rhythm. The total interruption time of their blood supply to the brain was considered to be more than ten minutes. […] Their pupils were fixed and dilated, and they were placed on a mechanical ventilation. As they were unable to trigger the ventilator by themself, they were placed on an automatic mode of mechanical ventilation. There was no improvement in their condition over the next forty-eight hours. A neurologist determined their condition to be irreversible and hopeless. A second neurologist concurred. During the forty-eight hour interval, the patient was given 600 mg of N-acetylcystein in a twenty percent solution, administered via a nasal-gastric tube every twelve hours. […] They awakened and was able to communicate by head nods and facial expressions.
# A high school teacher went into a cardiac arrest while driving in their car. By the time they arrived at a hospital emergency room and was resuscitated, a period of twenty to thirty minutes of an interruption of the blood supply to the brain had elapsed. Even though the cardiac resuscitation efforts were successful, they remained in a deep coma, a vegetative state, and required a life supporting mechanical ventilation. Over the next two years, they remained on mechanical ventilation, gastrostomy tube feedings, and in a coma without any improvement in their cerebral or neurological functions. Their prognosis for recovery was considered hopeless.
# Approximately two years after the cardiac arrest, they were administered 600 mg of N-acetylcystein in a twenty percent solution twice daily. Over the next several months, they made a remarkable recovery. […] They became alert and able to respond initially to tacit and aural stimuli, and later they were able to understand simple sentences.
# A person lapsed into a coma from a cerebral hemorrhage secondary to a vascular stroke. As their condition continued to deteriorate, they required a life supporting mechanical ventilation. Several months later they developed a brain abscess that required a craniotomy. This was followed by the appearance of an intense seizure disorder.
# Following the surgery, it became possible to gradually wean […] from the respirator, but […] remained in a semi-vegetative state, unable to respond to aural stimuli and fed by a gastrostomy tube. […] remained completely bedridden.
# More than three years after the initial event, they were administered 600 mg of N-acetylcystein in a twenty percent solution twice daily via their gastrostomy tube. Over the next several months, they made a remarkable recovery. […] By the third month of treatment, they were able to sit in a wheelchair and express their wishes to be driven around the facility where they resided. By the fourth month of the treatment, they regained the capacity to express themself verbally even though it was restricted to a vocabulary of mono and disyllabic words. They also regained the ability to lift their head, which i previously lay flexed upon their chest, without the use of an assisting device. […] Their neurological and cerebral recoveries continued to progress.
# A medical technician experienced a series of multiple strokes that led to a semi-comatose state lasting more than two years. Their medical condition deteriorated over time with the development of multi-organ failures. They required a mechanical ventilation and hemo-dialysis for life support. Three years after the onset of their condition and several months after all efforts to wean them from the respirator failed, they were initially administered 600 mg of N-acetylcystein in a twenty percent solution twice daily via a gastrostomy tube.
smiles,measurement,setting,value
CC(=O)N[C@@H](CS)C(=O)O [N-acetylcystein],Overall therapeutic efficacy indicated by the four cases,acute phase and many months or years after the initial event,reversing a coma as well as other neurological deficits
same,"Breathing / respirator dependence, Case No. 1","person on mechanical ventilation, 600 mg every twelve hours via nasal-gastric tube, forty-eight hour period",able to breath partially on their own without the respirator
same,"Coma / neurological outcome, Case No. 2","person, coma for two years after cardiac arrest, 600 mg in twenty percent solution twice daily, over several months",awakened from their coma
same,"Verbal response, Case No. 2","person, coma for two years, 600 mg twice daily, by the fourth month of treatment",able to respond verbally
same,"Coma / neurological outcome, Case No. 1","person, deep coma after cardiac arrest, 600 mg in twenty percent solution via nasal-gastric tube every twelve hours, forty-eight hour period",completely revived from their coma
same,"Respirator dependence, Case No. 4","person, multiple strokes, semi-comatose, ventilated, 600 mg twice daily via gastrostomy tube increased to 2400 mg daily",improved and no longer needed the respirator
same,"Ambulation, Case No. 3","person, previously bedridden, 600 mg twice daily via gastrostomy tube, by the fifth month of treatment",able to ambulate more than one hundred steps with the aid of a walker or the wheelchair
same,"Neurological outcome, Case No. 3","person, semi-vegetative state more than three years after cerebral hemorrhage/stroke, 600 mg twice daily via gastrostomy tube, over several months",became completely alert and able to respond to simple verbal commands
same,"Respirator dependence, Case No. 2","person, two years on mechanical ventilation, 600 mg twice daily",no longer needed the respirator
